Measured values: EP0937734B1, “11-Acetyl-12,13-dioxabicyclo ¬8.2.1 tridecenone derivatives, process for making them and pharmaceutical compositions containing them” (Abbott Products GmbH, priority 1998, dated 1999)

Key:
Motilin-Rezeptoren = target: T1, Motilin-Rezeptoren (Oryctolagus cuniculus, UniProt G1T803); assay: Binding of test substances to motilin receptors (displacement of 125I-labelled motilin, crude membrane preparation from rabbit antrum); set-up: species or system Kaninchen; details: displacement of iodinated motilin (50 pM), rabbit antrum membrane fraction, 60 min at 30 °C; calculated from IC50
T1 construct: Die so erhaltene Gewebefraktion, welche als "rohe Membranzubereitung" bezeichnet wird, wird für den Test eingesetzt; from tissue; host or cells: rabbit antrum freed of mucosa, crude membrane fraction
Source text: 1. Bestimmung des Bindungsvermögens der Testsubstanzen an Motilin-Rezeptoren.
Die Affinität der Verbindungen der Formel I an Motilin-Rezeptoren wird in vitro an einer Fraktion eines Gewebehomogenats aus dem Kaninchenantrum gemessen. Bestimmt wird die Verdrängung von radioaktiv markiertem jodiertem Motilin aus der Motilin-Rezeptor-Bindung durch die Testsubstanzen.
Die Rezeptor-Bindungsstudien werden nach einer Modifikation der Methode von Borman et al. (Regulatory Peptides 15 (1986), 143-153) durchgeführt. Zur Herstellung des ^125Jodmarkierten Motilins wird Motilin auf an sich bekannte Weise, z. B. analog der von Bloom et al. (Scand. J. Gastroenterol. 11 (1976) 47 - 52) beschriebenen Methode enzymatisch unter Verwendung von Lactoperoxidase jodiert.
Zur Gewinnung der in dem Test verwendeten Gewebehomogenatfraktion aus dem Kaninchenantrum wird das von Schleimhäuten befreite Antrum zerkleinert und im 10-fachen Volumen einer kalten Homogenisierungspufferlösung (50 mM Tris-HCl-Puffer, 250 mM Sucrose, 25 mM KCl, 10 mM MgCl2, pH 7,4) mit Zusatz von Inhibitoren (1 mM Jodacetamid, 1 µM Pepstatin, 0,1 mM Methylsulfonylfluorid, 0,1 g/l Trypsininhibitor, 0,25 g/l Bacitracin) mit einem Homogenisator 15 sec. bei 1500 Umdrehungen pro Minute homogenisiert. […]

[1] = In vivo determination of the influence on the resting tone of the lower oesophageal sphincter (pull-through manometry); set-up: species or system Beagle-Hunden
Source text: 3. In-vivo-Bestimmung des Einflusses der Substanzen auf den Ruhe-Tonus des unteren Oesophagus Sphincter.
Diese Bestimmung wird an männlichen, wachen, nüchternen Beagle-Hunden vorgenommen, denen vor Versuchsbeginn je eine Oesophagus-Fistel und eine Duodenal-Kanüle gelegt worden sind. Der Druck des unteren Oesophagus Sphincter wird mittels eines perfundierten Kathetersystems mit seitlicher Öffnung, das mit einem Druckaufnehmer und einem Recorder verbunden ist, gemessen. Der Katheter wird über die Oesophagus-Fistel in den Magen geführt und dann langsam manuell zurückgezogen (= Durchzugsmanometrie). Beim Passieren des Katheterteils mit der seitlichen Öffnung durch die Hochdruckzone des unteren Oesophagus Sphincter wird ein Peak registriert. Aus diesem Peak wird der Druck in mm Hg bestimmt.
Auf diese Weise wird zunächst als Kontrollwert der basale Druck des Oesophagus Sphincter bestimmt. Anschließend wird die Testsubstanz oral appliziert und nach 15 min. wird der Druck am unteren Oesophagus Sphincter in 2-Minuten-Intervallen über einen Zeitraum von 60 min. gemessen. Die Steigerung des Druckes nach Testsubstanzgabe im Vergleich zu dem vorbestimmten basalen Druck wird berechnet.
In diesem Test nahm der basale Tonus des Oesophagus Sphincter durch eine Dosis von 2,15 µMol/kg der Substanz des Beispiels 1 um 143 % zu. Dieser Effekt hielt während der gesamten Testdauer von 60 min. an.

[2] = In vivo determination of the influence on gastric tone (barostat, gastric volume at constant pressure after lipid-induced relaxation); set-up: species or system Beagle-Hunden
Source text: 2. In-vivo-Bestimmung des Einflusses der Substanzen auf den Magentonus
Der Magentonus spielt eine wichtige Rolle bei der Magenentleerung. Ein erhöhter Magentonus trägt zu einer beschleunigten Magenentleerung bei.
Der Einfluß von Substanzen auf den Magentonus wird an Beagle-Hunden mit Hilfe eines Barostaten bestimmt, welcher mit einem Kunststoffbeutel im Magen des Hundes verbunden ist und die Messung von Volumen oder Druck im Magen des Hundes ermöglicht. Mit dem Barostaten wird das Magenvolumen bei konstantem Druck im Magen oder der Magendruck bei konstantem Volumen im Magen bestimmt. Bei Erhöhung des Magentonus stellt man bei einem bestimmten Druck ein verringertes Magenvolumen fest und einen erhöhten Druck bei einem bestimmten Volumen. In dem zur Untersuchung der durch die Substanzen bewirkten Erhöhung des Magentonus verwendeten Testmodell wird die durch die Substanzen verursachte Magenvolumenänderung bei konstantem Druck gemessen. Der Magen der Versuchstiere wird durch Lipideinnahme relaxiert, d. h. der Magentonus sinkt, wodurch das Magenvolumen entsprechend zunimmt. Als Maß für die den Magentonus erhöhende Wirkung der Substanzen wird die nach Substanzeinnahme durch Wiederanstieg des Magentonus eintretende Reduktion des durch Lipidgabe vergrößerten Magenvolumens in % gemessen. […]

T1 sequence (G1T803 1-400): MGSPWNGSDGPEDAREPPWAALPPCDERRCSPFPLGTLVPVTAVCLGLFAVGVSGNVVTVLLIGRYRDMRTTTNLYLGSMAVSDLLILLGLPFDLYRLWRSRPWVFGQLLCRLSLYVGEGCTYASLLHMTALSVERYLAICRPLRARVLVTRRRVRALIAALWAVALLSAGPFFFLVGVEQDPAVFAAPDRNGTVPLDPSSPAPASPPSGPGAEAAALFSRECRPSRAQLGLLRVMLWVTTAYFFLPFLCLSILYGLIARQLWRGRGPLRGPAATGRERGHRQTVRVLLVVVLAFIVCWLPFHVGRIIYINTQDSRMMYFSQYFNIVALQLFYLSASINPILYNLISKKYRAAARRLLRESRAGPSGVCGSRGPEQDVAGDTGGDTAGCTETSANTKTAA

## CO[C@]1(C)C[C@H](O[C@H]2[C@H](C)[C@@H](O[C@@H]3O[C@H](C)C[C@H](N(C)C(C)C)[C@H]3OC(C)=O)[C@@]3(C)CC(C)=C(O3)[C@H](C)[C@H](C(C)=O)OC(=O)[C@@H]2C)O[C@@H](C)[C@@H]1O [Beispiel 2, (2R,3S,4S,5R,6R,10R,11R)-3-[(2,6-Didesoxy-3-C-methyl-3-O-methyl-α-L-ribohexopyranosyl)-oxy]-5-[(3,4,6-tridesoxy-2-O-acetyl-3-(N-methyl-N-isopropylamino)-β-D-xylohexopyranosyl)-oxy]-2,4,6,8,10-pentamethyl-11-acetyl-12,13-dioxabicyclo-[8.2.1]tridec-8-en-1-on]
Motilin-Rezeptoren
  IC50: 17.8 nM

## CO[C@]1(C)C[C@H](O[C@H]2[C@H](C)[C@@H](O[C@@H]3O[C@H](C)C[C@H](N(C)C(C)C)[C@H]3O)[C@@]3(C)CC(C)=C(O3)[C@H](C)[C@H](C(C)=O)OC(=O)[C@@H]2C)O[C@@H](C)[C@@H]1O [Beispiel 1, (2R,3S,4S,5R,6R,10R,11R]-3-[(2,6-Didesoxy-3-C-methyl-3-O-methyl-α-L-ribohexopyranosyl)-oxy]-5-[(3,4,6-tridesoxy-3-(N-methyl-N-isopropylamino)-β-D-xylohexopyranosyl)-oxy]-2,4,6,8,10-pentamethyl-11-acetyl-12,13-dioxabicyclo[8.2.1]-tridec-8-en-1-on]
Motilin-Rezeptoren
  IC50: 9.77 nM
[1]; 2,15 µMol/kg oral, effect lasted for the whole test duration
  Duration of the effect on the tone of the Oesophagus Sphincter: ≥ 60 min
[1]; conscious fasted male Beagle dogs, 2,15 µMol/kg oral, versus basal pressure
  Zunahme des basalen Tonus des Oesophagus Sphincter: 143%
[2]; Beagle dogs, 2,15 µmol/kg i.d., constant pressure
  Reduktion des nach Lipidgabe vergrößerten Magenvolumens: 59,5%
[2]; Beagle dogs, 2,15 µmol/kg oral
  Reduktion des Magenvolumens (Lipid-induzierte Relaxierung des Magenvolumens): praktisch völlig verhindert
